Measurements published in patent publication US10392391B2 (Vertex Pharmaceuticals Incorporated, priority 2012, dated 2019).
Read-outs that look alike come from different tables or passages of the source.

Molecular target: ATR kinase (full-length ATR) (Homo sapiens (Human), UniProt Q13535)
Assay: ATR inhibition assay (radioactive-phosphate incorporation)
Assay type: biochemical
In short: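 Radiometric 33P incorporation by 5 nM full-length ATR into 800 μM target peptide with 10 μM [γ-33P]ATP, in 50 mM Tris/HCl pH 7.5, 10 mM MgCl2, 1 mM DTT, 7% DMSO, 25° C. Compound pre-incubated 10 minutes; reaction stopped after 24 hours, captured on phosphocellulose. Ki(app) from non-linear regression of initial rates.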

[1] = Ki(app), 5 nM full-length ATR, 10 μM ATP, 25° C.

Sequence of ATR kinase (full-length ATR) (Q13535 whole entry): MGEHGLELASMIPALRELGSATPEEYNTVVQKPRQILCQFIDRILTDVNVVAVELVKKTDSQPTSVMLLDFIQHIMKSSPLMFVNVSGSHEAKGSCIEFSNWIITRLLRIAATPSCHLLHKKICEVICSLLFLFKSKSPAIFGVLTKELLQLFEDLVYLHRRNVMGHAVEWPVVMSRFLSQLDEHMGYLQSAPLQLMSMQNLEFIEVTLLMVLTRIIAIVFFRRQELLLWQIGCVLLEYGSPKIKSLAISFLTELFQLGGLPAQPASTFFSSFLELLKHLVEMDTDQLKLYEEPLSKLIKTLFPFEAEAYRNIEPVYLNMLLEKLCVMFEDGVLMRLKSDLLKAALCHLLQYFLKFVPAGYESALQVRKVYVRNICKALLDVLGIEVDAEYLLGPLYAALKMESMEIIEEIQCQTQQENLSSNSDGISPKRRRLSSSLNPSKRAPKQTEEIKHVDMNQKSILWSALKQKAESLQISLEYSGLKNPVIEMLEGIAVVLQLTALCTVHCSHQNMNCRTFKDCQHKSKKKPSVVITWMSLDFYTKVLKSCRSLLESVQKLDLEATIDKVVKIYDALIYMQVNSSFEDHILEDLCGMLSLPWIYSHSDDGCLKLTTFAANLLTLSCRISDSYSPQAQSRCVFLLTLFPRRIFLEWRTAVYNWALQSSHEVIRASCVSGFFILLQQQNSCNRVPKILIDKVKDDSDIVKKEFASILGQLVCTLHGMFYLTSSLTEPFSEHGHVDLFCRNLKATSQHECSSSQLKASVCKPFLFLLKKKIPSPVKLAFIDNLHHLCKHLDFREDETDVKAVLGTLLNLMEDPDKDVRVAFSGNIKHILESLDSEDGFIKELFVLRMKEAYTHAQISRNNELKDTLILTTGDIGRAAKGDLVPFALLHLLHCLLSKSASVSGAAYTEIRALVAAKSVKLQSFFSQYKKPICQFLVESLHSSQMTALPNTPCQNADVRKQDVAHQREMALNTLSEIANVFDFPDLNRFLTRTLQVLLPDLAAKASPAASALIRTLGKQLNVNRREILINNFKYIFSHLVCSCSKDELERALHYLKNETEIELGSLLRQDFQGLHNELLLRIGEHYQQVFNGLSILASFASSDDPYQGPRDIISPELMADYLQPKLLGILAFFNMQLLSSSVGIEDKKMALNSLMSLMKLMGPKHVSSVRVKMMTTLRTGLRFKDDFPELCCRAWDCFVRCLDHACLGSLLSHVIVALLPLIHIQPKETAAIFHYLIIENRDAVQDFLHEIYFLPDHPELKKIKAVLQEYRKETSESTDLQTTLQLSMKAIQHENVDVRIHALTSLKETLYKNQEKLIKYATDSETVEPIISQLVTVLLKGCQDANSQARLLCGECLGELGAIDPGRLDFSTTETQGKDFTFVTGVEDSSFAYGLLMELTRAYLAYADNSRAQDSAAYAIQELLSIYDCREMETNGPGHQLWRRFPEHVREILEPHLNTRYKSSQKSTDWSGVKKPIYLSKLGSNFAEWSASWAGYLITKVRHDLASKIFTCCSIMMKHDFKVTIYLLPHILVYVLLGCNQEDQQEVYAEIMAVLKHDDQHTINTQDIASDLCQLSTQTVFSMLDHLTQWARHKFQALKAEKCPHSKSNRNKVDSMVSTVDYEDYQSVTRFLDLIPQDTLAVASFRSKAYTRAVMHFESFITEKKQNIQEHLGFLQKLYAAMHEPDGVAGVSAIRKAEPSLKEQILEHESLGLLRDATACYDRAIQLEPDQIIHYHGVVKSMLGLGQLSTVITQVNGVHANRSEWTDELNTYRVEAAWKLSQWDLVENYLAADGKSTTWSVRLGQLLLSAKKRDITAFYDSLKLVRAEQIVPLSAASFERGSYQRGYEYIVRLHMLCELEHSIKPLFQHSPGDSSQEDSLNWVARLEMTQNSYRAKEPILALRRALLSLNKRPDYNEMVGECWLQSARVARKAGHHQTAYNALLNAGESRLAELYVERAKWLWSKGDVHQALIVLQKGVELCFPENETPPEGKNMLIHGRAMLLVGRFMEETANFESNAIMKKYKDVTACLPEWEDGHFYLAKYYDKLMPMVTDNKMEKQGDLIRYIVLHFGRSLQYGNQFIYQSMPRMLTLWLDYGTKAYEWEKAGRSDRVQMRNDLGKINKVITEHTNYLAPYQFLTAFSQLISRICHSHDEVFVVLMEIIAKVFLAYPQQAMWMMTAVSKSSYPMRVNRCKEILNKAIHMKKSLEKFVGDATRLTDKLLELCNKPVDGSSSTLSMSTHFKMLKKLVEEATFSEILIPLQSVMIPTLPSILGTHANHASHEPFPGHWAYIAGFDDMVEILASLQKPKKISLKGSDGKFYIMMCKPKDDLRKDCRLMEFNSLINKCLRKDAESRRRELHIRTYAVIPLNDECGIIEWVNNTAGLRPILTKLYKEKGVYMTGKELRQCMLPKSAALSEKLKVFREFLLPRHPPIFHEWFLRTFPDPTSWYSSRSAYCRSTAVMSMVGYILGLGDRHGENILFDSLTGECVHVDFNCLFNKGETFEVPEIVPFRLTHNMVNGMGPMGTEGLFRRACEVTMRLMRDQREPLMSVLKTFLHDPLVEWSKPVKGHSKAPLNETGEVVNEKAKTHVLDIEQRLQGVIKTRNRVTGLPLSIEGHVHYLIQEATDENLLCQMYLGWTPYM

Row | SMILES | Ki [1] [µM] | Ki [µM]
1 | Nc1nn2cc(F)cnc2c1C(=O)Nc1cnccc1N1CCC(S(=O)(=O)N2CCN3CCC2CC3)CC1 [I-N-196, N-(4-(4-(1,4-diazabicyclo[3.2.2]nonan-4-ylsulfonyl)piperidin-1-yl)pyridin-3-yl)-2-amino-6-fluoropyrazolo[1,5-a]pyrimidine-3-carboxamide] | 0.01 to 1 | 
2 | Nc1nn2cc(Cl)cnc2c1C(=O)Nc1cnccc1N1CCNCC1 [I-N-88, 2-amino-6-chloro-N-(4-(piperazin-1-yl)pyridin-3-yl)pyrazolo[1,5-a]pyrimidine-3-carboxamide] | 0.01 to 1 | 
3 | CS(=O)(=O)c1ccc(-c2ccncc2NC(=O)c2c(N)nn3cc(F)cnc23)cc1 [I-C-61, 2-amino-6-fluoro-N-(4-(4-(methylsulfonyl)phenyl)pyridin-3-yl)pyrazolo[1,5-a]pyrimidine-3-carboxamide] | 0.01 to 1 | 
4 | COc1ccncc1NC(=O)c1c(N)nn2cc(C(C)C#N)cnc12 (centres unmarked) [I-O-21, 2-amino-6-(1-cyanoethyl)-N-(4-methoxypyridin-3-yl)pyrazolo[1,5-a]pyrimidine-3-carboxamide] | 0.01 to 1 | 
5 | CN(C)CC1(O)CCN(c2ccncc2NC(=O)c2c(N)nn3cc(Cl)cnc23)CC1 [I-N-36, 2-amino-6-chloro-N-(4-(4-((dimethylamino)methyl)-4-hydroxypiperidin-1-yl)pyridin-3-yl)pyrazolo[1,5-a]pyrimidine-3-carboxamide] |  | 1 to 5
6 | COc1ccncc1NC(=O)c1c(N)nn2cc(CC#N)cnc12 [I-O-26, 2-amino-6-(cyanomethyl)-N-(4-methoxypyridin-3-yl)pyrazolo[1,5-a]pyrimidine-3-carboxamide] | < 0.01 | 
7 | Nc1nn2cc(Cl)cnc2c1C(=O)Nc1cnccc1OCCCO [I-O-53, 2-amino-6-chloro-N-(4-(3-hydroxypropoxy)pyridin-3-yl)pyrazolo[1,5-a]pyrimidine-3-carboxamide] | 0.01 to 1 | 
8 | Cc1cnccc1-c1ccncc1NC(=O)c1c(N)nn2cc(F)cnc12 [I-C-29, 2-amino-6-fluoro-N-(3′-methyl-[4,4′-bipyridin]-3-yl)pyrazolo[1,5-a]pyrimidine-3-carboxamide] | 0.01 to 1 | 
9 | Nc1nn2cc(F)cnc2c1C(=O)Nc1cnccc1N1CCN(S(=O)(=O)C2CCOCC2)CC1 [I-N-177, 2-amino-6-fluoro-N-(4-(4-((tetrahydro-2H-pyran-4-yl)sulfonyl)piperazin-1-yl)pyridin-3-yl)pyrazolo[1,5-a]pyrimidine-3-carboxamide] | 0.01 to 1 | 
10 | Nc1nn2cc(F)cnc2c1C(=O)Nc1cnccc1-c1ccc(C(=O)N2CCC(N3CCC3)CC2)nc1 [I-C-54, 2-amino-N-(6-(4-(azetidin-1-yl)piperidine-1-carbonyl)-[3,4′-bipyridin]-3′-yl)-6-fluoropyrazolo[1,5-a]pyrimidine-3-carboxamide] | 0.01 to 1 | 
11 | N#CCc1cnc2c(C(=O)Nc3cnccc3N3CCCC3)c(N)nn2c1 [I-N-77, 2-amino-6-(cyanomethyl)-N-(4-(pyrrolidin-1-yl)pyridin-3-yl)pyrazolo[1,5-a]pyrimidine-3-carboxamide] | 0.01 to 1 | 
12 | CC(C)(C#N)c1cnc2c(C(=O)Nc3cncc(F)c3N3CCN(C4COC4)CC3)c(N)nn2c1 [I-N-144] |  | 1 to 5
13 | Cn1cc(-c2ccncc2NC(=O)c2c(N)nn3cc(F)cnc23)ccc1=O [I-C-59, 2-amino-6-fluoro-N-(1-methyl-6-oxo-1,6-dihydro-[3,4′-bipyridin]-3′-yl)pyrazolo[1,5-a]pyrimidine-3-carboxamide] | 0.01 to 1 | 
14 | Nc1nn2cc(Cl)cnc2c1C(=O)Nc1cnccc1O[C@@H]1CCCNC1 [I-O-81, (R)-2-amino-6-chloro-N-(4-(piperidin-3-yloxy)pyridin-3-yl)pyrazolo[1,5-a]pyrimidine-3-carboxamide] | 0.01 to 1 | 
15 | CNC1CCN(c2ccncc2NC(=O)c2c(N)nn3cc(Cl)cnc23)CC1 [I-N-87, 2-amino-6-chloro-N-(4-(4-(methylamino)piperidin-1-yl)pyridin-3-yl)pyrazolo[1,5-a]pyrimidine-3-carboxamide] | 0.01 to 1 | 
16 | Nc1nn2cc(Cl)cnc2c1C(=O)Nc1cnccc1OC1CCCOC1 (centres unmarked) [I-O-65, 2-amino-6-chloro-N-(4-((tetrahydro-2H-pyran-3-yl)oxy)pyridin-3-yl)pyrazolo[1,5-a]pyrimidine-3-carboxamide] | 0.01 to 1 | 

Second part, the compound after the results:

Row | Ki [1] [µM] | Ki [µM] | SMILES
17 | 0.01 to 1 |  | CN1CC2CN(c3c(Cl)cncc3NC(=O)c3c(N)nn4cc(F)cnc34)CC2C1 (centres unmarked) [I-N-286, 2-amino-N-(5-chloro-4-(5-methylhexahydropyrrolo[3,4-c]pyrrol-2(1H)-yl)pyridin-3-yl)-6-fluoropyrazolo[1,5-a]pyrimidine-3-carboxamide]
18 | 0.01 to 1 |  | COCC1CCN(c2ccncc2NC(=O)c2c(N)nn3cc(F)cnc23)CC1 [I-N-282, 2-amino-6-fluoro-N-(4-(4-(methoxymethyl)piperidin-1-yl)pyridin-3-yl)pyrazolo[1,5-a]pyrimidine-3-carboxamide]
19 | 0.01 to 1 |  | Nc1nn2cc(F)cnc2c1C(=O)Nc1cncc(F)c1N1CCN(C2CCOCC2)CC1 [I-N-121, 2-amino-6-fluoro-N-(5-fluoro-4-(4-(tetrahydro-2H-pyran-4-yl)piperazin-1-yl)pyridin-3-yl)pyrazolo[1,5-a]pyrimidine-3-carboxamide]
20 | 0.01 to 1 |  | Cc1nc(N2CCN(C)CC2)ccc1-c1ccncc1NC(=O)c1c(N)nn2cc(F)cnc12 [I-C-40, 2-amino-6-fluoro-N-(2-methyl-6-(4-methylpiperazin-1-yl)-[3,4′-bipyridin]-3′-yl)pyrazolo[1,5-a]pyrimidine-3-carboxamide]
21 | 0.01 to 1 |  | Nc1nn2cc(F)cnc2c1C(=O)Nc1cncc(Cl)c1N1CCC(O)C1 (centres unmarked) [I-N-284, 2-amino-N-(5-chloro-4-(3-hydroxypyrrolidin-1-yl)pyridin-3-yl)-6-fluoropyrazolo[1,5-a]pyrimidine-3-carboxamide]
22 | 0.01 to 1 |  | COc1cncc(NC(=O)c2c(N)nn3cc(F)cnc23)c1C1CC1 [I-C-84, 2-amino-N-(4-cyclopropyl-5-methoxypyridin-3-yl)-6-fluoropyrazolo[1,5-a]pyrimidine-3-carboxamide]
23 |  | 0.01 to 1 | C[N+]1([O-])CCN(C(=O)C2CCN(c3c(F)cncc3NC(=O)c3c(N)nn4cc(F)cnc34)CC2)CC1 [I-G-95, 4-(1-(3-(2-amino-6-fluoropyrazolo[1,5-a]pyrimidine-3-carboxamido)-5-fluoropyridin-4-yl)piperidine-4-carbonyl)-1-methylpiperazine 1-oxide]
24 | 0.01 to 1 |  | CN1CCOC(C(=O)N2CCN(c3c(F)cncc3NC(=O)c3c(N)nn4cc(F)cnc34)CC2)C1 (centres unmarked) [I-N-174, 2-amino-6-fluoro-N-(5-fluoro-4-(4-(4-methylmorpholine-2-carbonyl)piperazin-1-yl)pyridin-3-yl)pyrazolo[1,5-a]pyrimidine-3-carboxamide]
25 | 0.01 to 1 |  | CN1CCN(C(=O)C2(C#N)CCN(c3c(F)cncc3NC(=O)c3c(N)nn4cc(F)cnc34)CC2)CC1 [I-G-25, 2-amino-N-(4-(4-cyano-4-(4-methylpiperazine-1-carbonyl)piperidin-1-yl)-5-fluoropyridin-3-yl)-6-fluoropyrazolo[1,5-a]pyrimidine-3-carboxamide]
26 | 0.01 to 1 |  | CN1CCN(c2ccncc2NC(=O)c2c(N)nn3cc(Cl)cnc23)CC1CO (centres unmarked) [I-N-63, 2-amino-6-chloro-N-(4-(3-(hydroxymethyl)-4-methylpiperazin-1-yl)pyridin-3-yl)pyrazolo[1,5-a]pyrimidine-3-carboxamide]
27 | 0.01 to 1 |  | Cn1nncc1-c1ccncc1NC(=O)c1c(N)nn2cc(F)cnc12 [I-C-72, 2-amino-6-fluoro-N-(4-(1-methyl-1H-1,2,3-triazol-5-yl)pyridin-3-yl)pyrazolo[1,5-a]pyrimidine-3-carboxamide]
28 | 0.01 to 1 |  | Nc1nn2cc(Cl)cnc2c1C(=O)Nc1cnccc1N1CCN2CCC[C@@H]2C1 [I-N-65, (R)-2-amino-6-chloro-N-(4-(hexahydropyrrolo[1,2-a]pyrazin-2(1H)-yl)pyridin-3-yl)pyrazolo[1,5-a]pyrimidine-3-carboxamide]
29 | 0.01 to 1 |  | CN1CCN2CCN(c3c(F)cncc3NC(=O)c3c(N)nn4cc(F)cnc34)CC2C1=O (centres unmarked) [I-N-240, 2-amino-6-fluoro-N-(5-fluoro-4-(8-methyl-9-oxohexahydro-1H-pyrazino[1,2-a]pyrazin-2(6H)-yl)pyridin-3-yl)pyrazolo[1,5-a]pyrimidine-3-carboxamide]
30 | 0.01 to 1 |  | CC(C#N)c1cnc2c(C(=O)Nc3cncc(F)c3N3CCN(C4COC4)CC3)c(N)nn2c1 (centres unmarked) [I-N-145]
31 | 0.01 to 1 |  | CN1CCCN(C(=O)C2CCN(c3c(F)cncc3NC(=O)c3c(N)nn4cc(F)cnc34)CC2)CC1 [I-G-6, 2-amino-6-fluoro-N-(5-fluoro-4-(4-(4-methyl-1,4-diazepane-1-carbonyl)piperidin-1-yl)pyridin-3-yl)pyrazolo[1,5-a]pyrimidine-3-carboxamide]
32 | 0.01 to 1 |  | CN1CC[C@H](Oc2ccncc2NC(=O)c2c(N)nn3cc(Cl)cnc23)C1 [I-O-69, (S)-2-amino-6-chloro-N-(4-((1-methylpyrrolidin-3-yl)oxy)pyridin-3-yl)pyrazolo[1,5-a]pyrimidine-3-carboxamide]
33 | 0.01 to 1 |  | CN1CCC(S(=O)(=O)N2CCN(c3ccncc3NC(=O)c3c(N)nn4cc(F)cnc34)CC2)CC1 [I-N-188, 2-amino-6-fluoro-N-(4-(4-((1-methylpiperidin-4-yl)sulfonyl)piperazin-1-yl)pyridin-3-yl)pyrazolo[1,5-a]pyrimidine-3-carboxamide]
34 | 0.01 to 1 |  | Nc1nn2cc(F)cnc2c1C(=O)Nc1cncc(F)c1N1CCN2C(=O)CCC[C@@H]2C1 [I-N-280, (R)-2-amino-6-fluoro-N-(5-fluoro-4-(6-oxohexahydro-1H-pyrido[1,2-a]pyrazin-2(6H)-yl)pyridin-3-yl)pyrazolo[1,5-a]pyrimidine-3-carboxamide]
35 | 0.01 to 1 |  | CN1C(=O)CCC12CCN(c1ccncc1NC(=O)c1c(N)nn3cc(F)cnc13)CC2 [I-N-235, 2-amino-6-fluoro-N-(4-(1-methyl-2-oxo-1,8-diazaspiro[4.5]decan-8-yl)pyridin-3-yl)pyrazolo[1,5-a]pyrimidine-3-carboxamide]
